assay: Human HepG2 cell viability assay in 384 well format; assay type: toxicity, cell-based; design: dose 125 nL, time 70.5 hour; cytotoxicity at 70.5 h: concentration not given beside the values; settings: HepG2 cells, read-out: Inhibition

SMILES | cytotoxicity at 70.5 h
c1ccc2nc(N3CCCC(Cn4cncn4)C3)cnc2c1 (stereo not given) | -1.5%
O=C(NCC[S+]([O-])c1ccccc1)NCC(F)(F)F (stereo not given) | -7.27%
CCN(c1ccc(C(=O)NCc2cc[nH]n2)cc1)C(C)C | 22.1%
CC(C)(O)CNc1ccc(C#N)c(C(F)(F)F)c1 | -1.99%
O=C(CN1CCCNC1=O)Nc1ccccc1C(=O)C1CCCC1 | -0.928%
Cc1cc(CCC(=O)N2CCC(O)CC2)ccc1Br | -0.947%
CN(CC(F)F)C(=O)c1cn(-c2ccc(Br)cc2)cn1 | 3.66%
CSC(C)(C)CNC(=O)NCC[S+]([O-])c1ccccc1 (stereo not given) | -6.22%
CC(C)c1nc(CNc2ccc(CCO)cc2)cs1 | 25.6%
CCN(C(=O)CN(CC(N)=O)C(C)C)C1=CCCC1 | 22.8%
Cc1cc(Br)cnc1NCCN1CCC(N(C)C)CC1 | -4.2%
CCc1nc(CNCC2(C(N)=O)CCOCC2)cs1 | -4.76%
COC1CCN(CCNc2ncc(Br)cc2C)CC1 | -1.86%
Cc1nn(C)c(Oc2cccnc2)c1NC(=O)C1CCCO1 (stereo not given) | -3.71%
CC(Cn1cccn1)NCc1csc(-c2ccc3c(c2)OCO3)n1 (stereo not given) | -5.39%
Cc1nn(C)c(Oc2cccc(F)c2)c1NC(=O)C1CCOCC1 | -14.1%
CC(Cn1cccn1)NCc1nc(-c2ccc3c(c2)OCO3)no1 (stereo not given) | 13%
O=C(Nc1ncn(Cc2cccc(Br)c2)n1)C1CCC1 | -13.9%
O=C(NCc1nnc2n1CCC2)N1CCC2(CCCCC2)CC1 | -12.2%
CCc1nc(CC(=O)NCC2(C(N)=O)CCOCC2)cs1 | -6.76%
CN(CC(=O)N(C)C1CCCCC1)Cc1nc2ccccc2c(=O)[nH]1 | -6.53%
CCN(CC)c1ccc(CNS(=O)(=O)C2CCOCC2)cc1F | -10.6%
CS(=O)(=O)Cc1nc(CN2CCC(C(F)(F)F)CC2)cs1 | -8.36%
CS(=O)(=O)Cc1nc(CN2CC=C(c3ccccc3)CC2)cs1 | -10.5%
Cc1ccccc1NS(=O)(=O)c1ccc(C(=O)O)cc1F | -2.98%
O=C1NC2(Nc3ncccc31)C(=O)Nc1c2ccc(Cl)c1F (stereo not given) | -6.95%
CNC(=O)Cc1noc(Cc2cccc(Cl)c2)n1 | -12.1%
Cn1cc(NC(=O)c2ccccn2)cc(Br)c1=O | -4.48%

SMILES | cytotoxicity at 70.5 h
Cc1cc(=O)c(C(=O)N(C)Cc2ccc(Cl)c(F)c2)c[nH]1 | -1.6%
Cc1csc(N2CCC(NCC3(O)CCc4ccccc43)CC2)n1 (stereo not given) | -7.31%
CC(C1CC1)N(C)C(=O)CCn1cccn1 (stereo not given) | 8.62%
CN(CC(=O)N(C)C1CCCCC1)Cc1nc2c(cnn2C)c(=O)[nH]1 | 8.15%
OC1(CNC2CCN(Cc3ccncc3)CC2)CCc2ccccc21 (stereo not given) | -5.39%
CC(NCCCC#N)c1ccc(S(C)(=O)=O)c(F)c1 (stereo not given) | 9.59%
Cc1nc(CN2C[C@@H]3CN(C(=O)CC(F)(F)F)C[C@@H]3C2=O)cs1 | -9.18%
CC(=O)NCC(=O)N1Cc2nccn2CC(CN2CCCC2=O)C1 (stereo not given) | -7.77%
O=C(C1CC=CC1)N1Cc2nccn2CC(CN2CCCC2)C1 (stereo not given) | -4.01%
Cn1ccc(C(=O)NC2CCC23CCN(C(=O)C2CCOCC2)CC3)c1 (stereo not given) | -4.15%
CO[C@@H]1CCN(S(=O)(=O)c2cccs2)[C@H]1Cc1ccccc1 | -0.149%
CCOCC1CN(CC2CC2)Cc2cnn(C)c21 (stereo not given) | -8.87%
CO[C@@H]1CCN(Cc2cccs2)[C@H]1Cc1ccncc1 | -0.408%
Cn1ccc(C(=O)NC2CCC23CCN(C(=O)c2cnccn2)CC3)c1 (stereo not given) | -7.61%
Cn1ncc2c1C(COCC1CC1)CN(CC1CC1)C2 (stereo not given) | -6.33%
Cn1ncc2c1C(COCC1CC1)CN(S(C)(=O)=O)C2 (stereo not given) | -9.85%
O=C(NCc1cccnc1)N1CCn2c(Cn3cccn3)cnc2C1 | -0.141%
O=C(NCc1ccccc1)N1CCn2c(Cn3cccn3)cnc2C1 | -2.08%
CN(C)C(=O)N1CCc2c(COCC3CC3)cncc2C1 | -4.34%
O=C([C@@H]1CCCO1)N1CCn2c(Cn3cccn3)cnc2C1 | -0.354%
CCOCC(=O)N1CC[C@H]2[C@@H]1CCC(=O)N2Cc1csc(C)n1 | -10.5%
CCC(CC)CN1CCC2(CCCN(c3ncccn3)C2)C1 (stereo not given) | 25.1%
Cc1ccc2c(c1)C1(CCN(C(N)=O)CC1)CN2C(=O)N(C)C | -7.46%
O=C(c1cccnc1)N1CCc2c(COCC3CC3)cncc2C1 | -2.77%
O=C(c1ccncc1F)N1CCc2ncnc(N3CCOCC3)c2CC1 | -9.98%
CN(Cc1cccnc1)CC1CNCc2nccn2C1 (stereo not given) | 4.1%
Cc1cccc(C(=O)N2CCc3c(COCC4CC4)cncc3C2)n1 | -10.4%
